For one assay, the target named is T1, ASK1 (Homo sapiens, UniProt Q99683).
T1 construct: a 2.2 kb DNA fragment containing an ASK1 gene was recovered from the gel; FLAG (N); made in house; host or cells: Sf-21 insect cells (recombinant baculovirus, pFASTBAC1)
T1 sequence (Q99683 649-1374 limits assumed): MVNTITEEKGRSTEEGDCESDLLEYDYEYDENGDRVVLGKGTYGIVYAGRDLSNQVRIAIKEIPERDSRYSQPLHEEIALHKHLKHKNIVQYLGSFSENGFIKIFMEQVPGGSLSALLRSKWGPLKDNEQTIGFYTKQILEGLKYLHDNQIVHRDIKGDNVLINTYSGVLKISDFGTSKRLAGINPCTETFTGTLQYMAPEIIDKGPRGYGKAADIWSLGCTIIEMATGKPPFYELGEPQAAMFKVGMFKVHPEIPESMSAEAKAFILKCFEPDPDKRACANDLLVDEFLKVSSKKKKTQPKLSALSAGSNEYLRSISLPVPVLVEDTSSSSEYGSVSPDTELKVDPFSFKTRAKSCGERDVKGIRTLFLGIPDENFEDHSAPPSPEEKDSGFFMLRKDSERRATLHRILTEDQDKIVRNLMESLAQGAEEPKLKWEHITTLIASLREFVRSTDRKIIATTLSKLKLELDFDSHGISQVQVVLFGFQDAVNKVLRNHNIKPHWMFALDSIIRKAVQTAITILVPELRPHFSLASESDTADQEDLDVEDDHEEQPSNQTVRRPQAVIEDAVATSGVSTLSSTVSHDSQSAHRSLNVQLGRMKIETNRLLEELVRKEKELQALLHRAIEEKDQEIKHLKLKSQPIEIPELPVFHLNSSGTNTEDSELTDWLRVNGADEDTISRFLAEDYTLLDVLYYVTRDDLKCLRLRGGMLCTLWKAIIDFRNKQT
The experiment in a line: Scintillation assay for measuring the inhibitory effect against ASK1 (myelin basic protein substrate, [γ-32P]ATP). Type of assay: biochemical. Conditions: Table 1, assay of Example A and B, read-out: Enzyme Activity IC50. The text has this: The inhibitory effect of the compound of the invention on ASK1 may be evaluated by evaluating the phosphorylating activity of the enzyme on a known substrate with or without the presence of the test compound. Example B provides such an assay where myelin basic protein (Wako) is used as substrate and detection is by scintillation counting. It should be understood other substrates and detection mechanism may be used. A commercially available a kit, Cisbio's HTRF® KinEASE™ STK kit, has shown to be useful for evaluating ASK1 activity. The assay uses an anti-phosphoseric specific, Eu3+-Cryptate labeled antibody to mark the phosphorylated product of ASK1 on a biotinylated kinase substrate, and detection is by time resolved fluorescence using XL665 labeled streptavidin. The fluorescence intensity is proportional to the amount of product formation. Example C provides the assay protocol.
Cloning of cDNA encoding human ASK1 was conducted by PCR using primers, 5′-[…] […]-3 (SEQ ID NO: 1) and 5′-AAAGCGGCCGCTCAA […]-3′ (SEQ ID NO: 2), from human heart cDNA library (Becton, Dickinson and Company). The PCR product was subjected to agarose gel (1%) electrophoresis, a 2.2 kb DNA fragment containing an ASK1 gene was recovered from the gel, and then digested with restriction enzymes, NotI and SalI, and inserted into a plasmid pFASTBAC1 (Invitrogen) to prepare a plasmid pFB-ASK1. The insert was verified by sequencing. Recombinant baculovirus was prepared according to the procedure of the Bac-to-Bac baculovirus expression system (Invitrogen).
Sf-21 cells were seeded to achieve 1×10^6 cells/mL in 100 mL of Sf-900 II SFM medium (Invitrogen) which contains 10% fetal calf serum and then cultured at 27° C. for 24 hrs. To express ASK1 in cells, 0.15 mL of the recombinant baculovirus virus stock was added to cells, and the then cultured for 60 hrs. The cells were separated from the culture solution by centrifugation at 3000 rpm for 10 min and washed once with PBS. The cells were suspended in 10 mL of lysis buffer (25 mM HEPES (pH 7.5), 1% Triton X, 130 mM NaCl, 1 mM EDTA, 1 mM DTT, 25 mM β-glycerophosphate, Protease inhibitor complete (Roche), 1 mM sodium orthovanadate) and ruptured by four times of treatment with a homogenizer (POLYTRON) at 20000 rpm for 30 seconds. Active ASK1 protein was purified from a supernatant obtained by centrifugal separation at 40000 rpm for 45 min using anti-FLAG M2 Affinity Gel (Sigma).
The test compounds (2.5 μL) dissolved in DMSO were added to wells containing 37.5 μl of the reaction solution (25 mM HEPES (pH 7.5), 10 mM magnesium acetate, 1 mM DTT) including 30 ng of active ASK1 protein and 1 μg of myelin basic protein (Wako), and incubated at room temperature for 5 min. To start the reaction, 10 μL of ATP solution (2.5 μM ATP, 0.1 μCi [γ-^32P]ATP) was added to wells. After incubating at room temperature for 30 min, the reaction was terminated by adding 50 μl of 20% TCA solution. The reaction solution was incubated at 4° C. for 30 min and an acid-insoluble fraction was transferred onto a GF/C filter (Packard) with Cell Harvester (Packard), and washed with 250 mM phosphoric acid. After drying at 45° C. for 60 min., 40 μL of Microscint 0 (Packard) was added and the radioactivity was measured with TopCount (Packard). The concentrations (IC50 value) of the test compounds necessary for 50% inhibition of kinase activity were calculated by PRISM 3.0 (Graphpad Software).
The enzyme activities of the compounds of the present invention against ASK1 were determined using the assay disclosed in Example A and B. The resulted IC50 values are reported in Table 1.
Broadly, the IC50 is the midpoint of a concentration-inhibition curve. As to `O=C(Nc1nc2ccc(-c3cn[nH]c3)nc2s1)c1ccc(C2CC2)cc1` [Compound 5, N-(5-(1H-pyrazol-4-yl)thiazolo[5,4-b]pyridin-2-yl)-4-cyclopropylbenzamide], the IC50 was over 1000 nM. `CC(C)(O)c1ccc(C(=O)Nc2nc3ccc(-n4ccnc4)nc3s2)cc1` [Compound 7, N-(5-(1H-imidazol-1-yl)thiazolo[5,4-b]pyridin-2-yl)-4-(2-hydroxypropan-2-yl)benzamide]: the IC50 was 100 to 1000 nM.

On to `CC(C)(O)c1ccc(C(=O)Nc2nc3ccc(N4CCCC4)nc3s2)cc1` [Compound 8, 4-(2-hydroxypropan-2-yl)-N-(5-(pyrrolidin-1-yl)thiazolo[5,4-b]pyridin-2-yl)benzamide], for which the IC50 was over 1000 nM.

On to `CC(C)(C)c1ccc(C(=O)Nc2nc3ccc(-c4cn[nH]c4)nc3s2)cc1` [Compound 9, N-(5-(1H-pyrazol-4-yl)thiazolo[5,4-b]pyridin-2-yl)-4-tert-butylbenzamide], for which the IC50 is under 100 nM. On the same count and under the same terms, the figure for `CC(C)(C)c1ccc(C(=O)Nc2nc3ccc(-c4ccncc4)nc3s2)cc1` [Compound 10, 4-tert-butyl-N-(5-(pyridin-4-yl)thiazolo[5,4-b]pyridin-2-yl)benzamide] is 100 to 1000 nM; for `CC(C)(C)c1ccc(C(=O)Nc2nc3ccc(-n4ccnc4)nc3s2)cc1` [Compound 11, N-(5-(1H-imidazol-1-yl)thiazolo[5,4-b]pyridin-2-yl)-4-tert-butylbenzamide] it is 100 to 1000 nM; for `CC(C)(O)c1ccc(C(=O)Nc2nc3ccc(-c4cn[nH]c4)nc3s2)cc1` [Compound 12, N-(5-(1H-pyrazol-4-yl)thiazolo[5,4-b]pyridin-2-yl)-4-(2-hydroxypropan-2-yl)benzamide] it is under 100 nM.

Turning to `CC(C)(CO)c1ccc(C(=O)Nc2nc3ccc(-c4cn[nH]c4)nc3s2)cc1` [Compound 13, N-(5-(1H-pyrazol-4-yl)thiazolo[5,4-b]pyridin-2-yl)-4-(1-hydroxy-2-methylpropan-2-yl)benzamide], the IC50 was under 100 nM. Still for that read-out and setting: for `Cc1n[nH]c(C)c1-c1ccc2nc(NC(=O)c3ccc(C(C)(C)O)cc3)sc2n1` [Compound 14, N-(5-(3,5-dimethyl-1H-pyrazol-4-yl)thiazolo[5,4-b]pyridin-2-yl)-4-(2-hydroxypropan-2-yl)benzamide] the value was 100 to 1000 nM; for `Cc1n[nH]cc1-c1ccc2nc(NC(=O)c3ccc(C(C)(C)O)cc3)sc2n1` [Compound 15, 4-(2-hydroxypropan-2-yl)-N-(5-(3-methyl-1H-pyrazol-4-yl)thiazolo[5,4-b]pyridin-2-yl)benzamide], under 100 nM. For `Cn1cc(-c2ccc3nc(NC(=O)c4ccc(C(C)(C)O)cc4)sc3n2)cn1` [Compound 19, 4-(2-hydroxypropan-2-yl)-N-(5-(1-methyl-1H-pyrazol-4-yl)thiazolo[5,4-b]pyridin-2-yl)benzamide], the IC50 is 100 to 1000 nM. On to `COC(=O)c1ccc(C(=O)Nc2nc3ccc(-c4c[nH]nc4C)nc3s2)cc1` [Compound 20, methyl 4-(5-(3-methyl-1H-pyrazol-4-yl)thiazolo[5,4-b]pyridin-2-ylcarbamoyl)benzoate], for which the IC50 is over 1000 nM. Turning to `Cc1n[nH]cc1-c1ccc2nc(NC(=O)c3ccc(C(C)(C)CO)cc3)sc2n1` [Compound 21, 4-(1-hydroxy-2-methylpropan-2-yl)-N-(5-(3-methyl-1H-pyrazol-4-yl)thiazolo[5,4-b]pyridin-2-yl)benzamide], the IC50 is under 100 nM. For the compound `CCc1nccn1-c1ccc2nc(NC(=O)c3ccc(C(C)(C)O)cc3)sc2n1` [Compound 22, N-(5-(2-ethyl-1H-imidazol-1-yl)thiazolo[5,4-b]pyridin-2-yl)-4-(2-hydroxypropan-2-yl)benzamide], the IC50 is over 1000 nM. Regarding `Cc1cnccc1-c1ccc2nc(NC(=O)c3ccc(C(C)(C)CO)cc3)sc2n1` [Compound 26, 4-(1-hydroxy-2-methylpropan-2-yl)-N-(5-(3-methylpyridin-4-yl)thiazolo[5,4-b]pyridin-2-yl)benzamide], the IC50 was 100 to 1000 nM. Still for that read-out and setting: for `CC(C)(O)c1ccc(C(=O)Nc2nc3ccc(-c4ccncc4)nc3s2)cc1` [Compound 30, 4-(2-hydroxypropan-2-yl)-N-(5-(pyridin-4-yl)thiazolo[5,4-b]pyridin-2-yl)benzamide] the value was 100 to 1000 nM. With `CC(C)(CO)c1ccc(C(=O)Nc2nc3ccc(-c4ccc(O)nc4)nc3s2)cc1` [Compound 33, 4-(1-hydroxy-2-methylpropan-2-yl)-N-(5-(6-hydroxypyridin-3-yl)thiazolo[5,4-b]pyridin-2-yl)benzamide], the IC50 is under 100 nM. As to `CC(C)(CO)c1ccc(C(=O)Nc2nc3ccc(-c4ccncc4)nc3s2)cc1` [Compound 34, 4-(1-hydroxy-2-methylpropan-2-yl)-N-(5-(pyridin-4-yl)thiazolo[5,4-b]pyridin-2-yl)benzamide], the IC50 lay in the range of 100 to 1000 nM. Take `CC(C)(O)c1ccc(C(=O)Nc2nc3ccc(-c4ccc(O)nc4)nc3s2)cc1` [Compound 35, 4-(2-hydroxypropan-2-yl)-N-(5-(6-hydroxypyridin-3-yl)thiazolo[5,4-b]pyridin-2-yl)benzamide]: the IC50 was under 100 nM. As for `CC(C)(O)c1ccc(C(=O)Nc2nc3ccc(N4CC[C@@H](O)C4)nc3s2)cc1` [Compound 36, (R)-4-(2-hydroxypropan-2-yl)-N-(5-(3-hydroxypyrrolidin-1-yl)thiazolo[5,4-b]pyridin-2-yl)benzamide], the IC50 was over 1000 nM. Take `CC(C)(O)c1ccc(C(=O)Nc2nc3ccc(N4CCCCC4)nc3s2)cc1` [Compound 38, 4-(2-hydroxypropan-2-yl)-N-(5-(piperidin-1-yl)thiazolo[5,4-b]pyridin-2-yl)benzamide]: the IC50 was over 1000 nM.

The assay is the same for the next values; noted with them: assay described in Example B, read-out: IC50 value.
Regarding `CC(C)(O)c1ccc(C(=O)Nc2nc3ccc(-c4ccncc4)nc3s2)cc1` [Compound 30, 4-(2-hydroxypropan-2-yl)-N-(5-(pyridin-4-yl)thiazolo[5,4-b]pyridin-2-yl)benzamide], the IC50 was 310 nM.

For the origin of these results see US8178555B2, “Apoptosis signal-regulating kinase 1 inhibitors” (Takeda Pharmaceutical Company Limited, priority 2009, dated 2012).
